One assay has as its target urokinase (Homo sapiens, UniProt P00749). As to the kind of experiment: urokinase inhibitory activity in in vitro assays. The following applies: for urokinase inhibitory activity: in vitro assays. In kind it is biochemical.
In the next assay the test system is thrombin. The following applies: in vitro assays.

With `N=C(N)NCCCC(C=O)NC(=O)C1CCN1C(=O)C(CO)NS(=O)(=O)c1ccccc1.O=C(O)C(F)(F)F` [Example 14, benzenesulfonyl-D-seryl-azetidyl-argininal, trifluoroacetate salt], on urokinase, the “specific inhibitory activity toward urokinase” value is listed as “demonstrates specific inhibitory activity toward urokinase” and the urokinase inhibitory activity result was “shown to have urokinase inhibitory activity”.

On to `N=C(N)NCCCC(C=O)NC(=O)CN1CCCC(NS(=O)(=O)Cc2ccccc2)C1=O` (stereo not shown) [Example 8, Benzylsulfonamido-6Lactam-Gly-Argininal], for which, in the assay with thrombin, the thrombin inhibitory activity entry is reported as “shown to have thrombin inhibitory activity”.

With `C[C@H](NC(=O)[C@@H](CO)NCCCc1ccccc1)C(=O)N[C@H](C=O)CCCNC(=N)N.O=C(O)C(F)(F)F` [Example 26, N-alpha-(3-phenylpropyl)-D-seryl-alanyl-argininal, trifluoroacetate salt], at urokinase, the urokinase inhibitory activity result was “shown to have urokinase inhibitory activity”.

For the origin of these results see patent US6787612B1, “Resin derivatization method and uses thereof” (Dendreon Corporation, priority 1998, dated 2004).
